Results taken from patent US9765381B2, “Mutated genes for the catalytic protein of oplophorus luciferase and use thereof” (JNC Corporation, priority 2013, dated 2017).

How the values were obtained:
[1] = tested on: pcDNA3-nanoKAZ/CHO-K1 stable expressed cell line; assay: Secretory inhibition by brefeldin A, nanoKAZ without secretory signal peptide sequence; type: cell-based, Chinese hamster; conditions: brefeldin A 5 μg/mL, 0-6 hours, FIG. 4
Description: (§1) Using the stable expressed cell lines established in EXAMPLE 14 and EXAMPLE 15, the effect of brefeldin A that inhibits exocytosis through the trans-Golgi network by the vesicle-mediated transport was compared. Specifically, each stable expressed cell lines with 2×10^5 cells were seeded to a 6-well plate in 3 mL of Ham's F-12 medium containing 10% FBS, respectively; followed by incubation at 37° C. in a 5% CO2 incubator for 48 hours. After washing twice with 3 mL of Ham's F-12 medium containing 10% FBS, brefeldin A (manufactured by Wako Pure Chemical Industries, Ltd.) was added to the culture medium at a final concentration of 5 μg/mL. As a control experiment, cells were cultured in the absence of brefeldin A. The luminescence activity in the culture medium was determined at each incubation times at 0, 1, 3 and 6 hours, using coelenterazine as a substrate.

[2] = tested on: pcDNA3-GLsp-nanoKAZ/CHO-K1 stable expressed cell line; assay: Secretory inhibition by brefeldin A, nanoKAZ with secretory signal peptide sequence; type: cell-based, Chinese hamster; conditions: brefeldin A 5 μg/mL, 0-6 hours, compared to absence of brefeldin A, FIG. 3
Description: as §1

C[C@H]1CCC/C=C/[C@@H]2C[C@H](O)C[C@H]2[C@H](O)/C=C/C(=O)O1 [brefeldin A]
secretion of nanoKAZ into the culture medium in the presence of brefeldin A [1]: secreted
secretion of nanoKAZ into the culture medium in the presence of brefeldin A [2]: markedly inhibited
